Results reported in patent US20130137116A1, “METHOD AND KIT FOR DETECTING THE EARLY ONSET OF RENAL TUBULAR CELL INJURY” (priority 2003, published 2013).

What was measured:
rat = conditions: after the initial insult; cited from earlier work
male Swiss-Webster mice = conditions: larger dose (20 μg/kg as printed), previously shown; cited from earlier work
[1] = tested on: Human renal proximal tubular epithelial cells (RPTEC); experiment: Mild ATP depletion of cultured cells (in vitro ischemia) with antimycin A; format: cell-based; conditions: 1 μm antimycin; for ATP level (partial ATP depletion): mean+/-SD from four experiments
Protocol: Human renal proximal tubular epithelial cells (RPTEC) were obtained from Clonetics (San Diego, Calif.). Cells were grown in Renal Epithelial Cell Basal Medium supplemented with REGM complex ([…] hydrocortisone, 10 pg/ml hEGF, 0.5 μg/ml epinephrine, 6.5 pg/ml triiodothyronine, 10 μg/ml transferrin, 5 μg/ml insulin, 1 μg/ml gentamicin sulfate, and 2% FBS), as recommended by the manufacturer.
We modified previously described protocols of in vitro ischemia by ATP depletion with inhibitors of oxidative phosphorylation (8, 9). On the second day post-confluence, RPTEC cells were incubated with 1 μm antimycin A (Sigma) for varying periods of time up to 6 h. […] ATP levels were monitored using a luciferase-based assay kit (Sigma), and expressed as a percentage of control values. Cells were harvested at various time points of ATP depletion, and analyzed for NGAL mRNA expression by RT-PCR and NGAL protein expression by Western analysis. The secretion of NGAL into the culture medium was also monitored.
In order to confirm the origin of NGAL from ischemic proximal tubule cells, we modified previously described protocols of in vitro ischemia by ATP depletion in cultured human proximal tubule cells (RPTEC). […] NGAL mRNA was just detectable in resting cells.

Row | Compound | Time at which KIM-1 is qualitatively detectable (rat) [h] | Time to tubule cell necrosis and apoptosis, and impaired renal function (male Swiss-Webster mice) [days] | ATP level (partial ATP depletion) ([1]; by 6 h) | Morphological consequences of mild ATP depletion ([1]; up to 6 h) | ATP level (partial ATP depletion) ([1]; within 1 h) | NGAL mRNA induction by RT-PCR ([1]; following partial ATP depletion)
1 | N.N.[Cl][Pt][Cl] [cisplatin] | 24 to 48 | 3 to 4 |  |  |  | 
2 | antimycin A |  |  | about 75±3 % of control | No morphological consequences | about 83±3 % of control | rapid and duration-dependent induction
